Literature values, collected in patent US7935665B2, “Non-corrosive cleaning compositions for removing etch residues” (Fujifilm Electronic Materials U.S.A., Inc., priority 2002, dated 2011).

Conditions: of the acid in the formulation

pKa1 | PKa2 | SMILES
3.86 |  | O=C(O)[C@H](O)[C@@H](O)[C@H](O)[C@H](O)CO [D-gluconic acid]
3.48 | 5.1 | O=C(O)CC(O)C(=O)O (racemic) [DL-malic acid]
